Measured values taken from ChEMBL document CHEMBL1153247, “Synthesis and biological evaluation of substituted 2-phenyl-2H-indazole-7-carboxamides as potent poly(ADP-ribose) polymerase (PARP) inhibitors” (Bioorg Med Chem Lett, 2010).
Values joined by “and” are separate entries in the source; they are usually repeats but may differ in a detail not shown here. Equal entries are not always repeated.

Experiments:
[1] = test system: HeLa; test: Cytotoxicity against human BRCA1 deficient HeLa cells after 7 days by fluorimetric analysis; format: functional, cell-based; settings: 168 h
[2] = test system: HeLa; test: Cytotoxicity against human HeLa cells expressing BRCA1 after 7 days by fluorimetric analysis; format: functional; settings: 168 h
[3] = molecular target: Poly [ADP-ribose] polymerase 1 (Homo sapiens, UniProt P09874); test: Inhibition of human PARP1 after 3 hrs using [3H]NAD+ by scintillation proximity assay
Poly [ADP-ribose] polymerase 1, sequence (P09874 whole entry): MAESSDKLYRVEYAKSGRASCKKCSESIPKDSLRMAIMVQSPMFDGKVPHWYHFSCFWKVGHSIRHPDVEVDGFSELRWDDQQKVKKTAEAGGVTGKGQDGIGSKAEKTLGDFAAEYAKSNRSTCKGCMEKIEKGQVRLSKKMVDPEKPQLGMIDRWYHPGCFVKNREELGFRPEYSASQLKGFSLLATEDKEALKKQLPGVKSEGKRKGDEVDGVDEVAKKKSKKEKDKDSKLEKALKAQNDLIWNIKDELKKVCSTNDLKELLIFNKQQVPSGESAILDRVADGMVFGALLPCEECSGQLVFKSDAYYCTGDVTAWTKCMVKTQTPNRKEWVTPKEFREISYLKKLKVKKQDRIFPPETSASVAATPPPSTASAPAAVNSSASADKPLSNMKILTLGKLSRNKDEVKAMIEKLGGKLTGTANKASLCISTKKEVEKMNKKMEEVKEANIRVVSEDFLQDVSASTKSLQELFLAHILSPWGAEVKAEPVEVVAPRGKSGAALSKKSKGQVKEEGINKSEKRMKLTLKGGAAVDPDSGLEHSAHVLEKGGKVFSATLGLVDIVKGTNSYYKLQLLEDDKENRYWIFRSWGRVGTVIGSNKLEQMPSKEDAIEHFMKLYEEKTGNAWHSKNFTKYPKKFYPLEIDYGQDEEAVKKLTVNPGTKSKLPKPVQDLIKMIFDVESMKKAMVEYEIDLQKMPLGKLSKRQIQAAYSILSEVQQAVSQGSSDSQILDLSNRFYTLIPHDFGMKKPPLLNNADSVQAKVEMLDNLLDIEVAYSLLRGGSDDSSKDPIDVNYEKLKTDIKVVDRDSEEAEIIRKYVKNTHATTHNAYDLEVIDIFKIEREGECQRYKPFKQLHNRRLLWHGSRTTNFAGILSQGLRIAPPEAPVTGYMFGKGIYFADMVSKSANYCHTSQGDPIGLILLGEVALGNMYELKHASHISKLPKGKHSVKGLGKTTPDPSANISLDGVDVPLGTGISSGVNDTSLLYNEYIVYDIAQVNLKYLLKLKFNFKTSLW

[4] = Clearance in rat; format: ADME, organism-based; settings: in vivo
[5] = (§1) Oral bioavailability in rat; format: ADME, organism-based; settings: in vivo
[6] = test system: Rattus norvegicus; test: as §1; format: ADME, organism-based; settings: in vivo
[7] = Intrinsic clearance in rat microsomes; format: ADME, Microsome

| SMILES | IC50 [3] [µM] | clearance [4] [mL/min/kg] | bioavailability [5] [%] | F [6] | microsomal CLint [7] [µL/min/mg] | IC50 [1] [µM] | CC50 [2] [µM] |
| --- | --- | --- | --- | --- | --- | --- | --- |
| NC(=O)c1cc(F)cc2cn(-c3ccc(NC(=O)C4CNC4)c(F)c3)nc12 | 0.004 |  |  |  |  | 0.042 | 0.65 |
| NC(=O)c1cccc2cn(-c3ccc(C(=O)NCCN4CCCC4)cc3)nc12 | 0.02 |  |  |  |  | 3.3 | 8 |
| NC(=O)c1cccc2cn(-c3ccc(NC(=O)CN4CCCCC4)cc3)nc12 | 0.02 |  |  |  |  | 1.4 | 3 |
| NC(=O)c1cccc2cn(-c3ccc(NC(=O)CN4CCOCC4)cc3)nc12 | 0.03 |  |  |  |  | 5 | > 6 |
| CN1CCCC(C(=O)NCc2ccc(-n3cc4cccc(C(N)=O)c4n3)cc2)C1 (stereo not drawn) | 0.022 |  |  |  |  | 2.3 | 9.4 |
| CNCc1ccc(-n2cc3cccc(C(N)=O)c3n2)cc1C(F)(F)F | 0.005 |  |  |  |  | 6.2 | > 20 |
| CN(Cc1ccc(-n2cc3cccc(C(N)=O)c3n2)cc1)C(=O)C1CNC1 | 0.018 |  |  |  |  | > 20 | 20 |
| CN1CCC(C(=O)Nc2ccc(-n3cc4cccc(C(N)=O)c4n3)cc2)CC1 | 0.01 |  |  |  |  | 3.6 | 8.4 |
| CNCc1ccc(-n2cc3cc(F)cc(C(N)=O)c3n2)c(F)c1 | 0.006 |  |  |  |  | 0.23 | 4.2 |
| CN1CCC[C@@H](C(=O)Nc2ccc(-n3cc4cc(F)cc(C(N)=O)c4n3)cc2F)C1 | 0.012 |  |  |  |  | 0.44 | 1.8 |
| NC(=O)c1cccc2cn(-c3ccc(C(=O)NCCN4CCCCC4)cc3)nc12 | 0.038 |  |  |  |  | 3 | 6.4 |
| NC(=O)c1cccc2cn(-c3ccc(C(=O)NCc4ccncc4)cc3)nc12 | 0.01 |  |  |  |  | 3.9 | 8.7 |
| NC(=O)c1cccc2cn(-c3ccc(C(=O)Nc4ccncc4)cc3)nc12 | 0.03 |  |  |  |  | 7.3 | > 50 |
| NC(=O)c1cccc2cn(-c3ccc(C(=O)N4CCCNCC4)cc3)nc12 | 0.022 |  |  |  |  | > 10 | > 20 |
| NC(=O)c1cccc2cn(-c3cccc(C(=O)N4CCCNCC4)c3)nc12 | 0.04 |  |  |  |  | > 20 | > 20 |
| CN1CCC[C@H]1C(=O)Nc1ccc(-n2cc3cccc(C(N)=O)c3n2)cc1 | 0.017 |  |  |  |  | 1.2 | 5 |
| CNCc1ccc(-n2nc3c(C(N)=O)cccc3c2Cl)cc1 | 0.02 |  |  |  |  | 5.9 | 11 |
| CNCc1ccc(-n2cc3c(O)ccc(C(N)=O)c3n2)cc1 | 0.54 |  |  |  |  | > 20 | > 20 |
| CN1CCC[C@@H](C(=O)Nc2ccc(-n3cc4cccc(C(N)=O)c4n3)cc2)C1 | 0.03 | 23 | 47 |  |  | 0.82 | 4.3 |
| NC(=O)c1cccc2cn(-c3ccc(NC(=O)CN4CCCC4)cc3)nc12 | 0.01 |  |  |  |  | 0.93 | 2.8 |
| CN1CC(C(=O)Nc2ccc(-n3cc4cc(F)cc(C(N)=O)c4n3)cc2F)C1 | 0.006 |  |  |  |  | 0.48 | 1.6 |
| CN1CCC[C@H](C(=O)Nc2ccc(-n3cc4cccc(C(N)=O)c4n3)cc2)C1 | 0.02 | 42 |  |  |  | 1.3 | 6 |
| CN(C)CC(=O)Nc1ccc(-n2cc3cccc(C(N)=O)c3n2)cc1 | 0.015 |  |  |  |  | 1.5 | 5 |
| CNCc1ccc(-n2cc3cc(F)cc(C(N)=O)c3n2)cc1 | 0.0014 |  |  |  |  | 0.094 | 1.8 |
| CNCc1ccc(-n2cc3c(OC)ccc(C(N)=O)c3n2)cc1 | > 1 |  |  |  |  | 3.4 | 5.5 |
| CN1CCCCC1C(=O)Nc1ccc(-n2cc3cccc(C(N)=O)c3n2)cc1 (racemic) | 0.046 |  |  |  |  | 2.6 | 6.7 |

More lines, main results first:

| IC50 [3] [µM] | clearance [4] [mL/min/kg] | bioavailability [5] [%] | F [6] | microsomal CLint [7] [µL/min/mg] | SMILES | IC50 [1] [µM] | CC50 [2] [µM] |
| --- | --- | --- | --- | --- | --- | --- | --- |
| 0.016 | 26 | 66 |  |  | CN1CCC(C(=O)Nc2ccc(-n3cc4cc(F)cc(C(N)=O)c4n3)cc2)CC1 | 0.52 | 2.7 |
| 0.01 |  |  |  |  | CN(C)CCNC(=O)c1ccc(-n2cc3cccc(C(N)=O)c3n2)cc1 | 5.4 | 8.9 |
| 0.065 |  |  |  |  | NC(=O)c1cccc2cn(-c3ccc(CNC(=O)C4CNC4)cc3)nc12 | > 20 | > 20 |
| 0.004 |  |  |  |  | CNCc1ccc(-n2cc3cccc(C(N)=O)c3n2)cc1OC | 1.9 | 11 |
| 0.008 |  |  |  |  | CNCc1ccc(-n2cc3c(F)ccc(C(N)=O)c3n2)cc1 | 2.5 | 6.3 |
| 0.02 |  |  |  |  | CNCc1ccc(-n2cc3ccc(F)c(C(N)=O)c3n2)cc1 | 1.6 | > 10 |
| 0.025 |  |  |  |  | CNCc1ccc(-n2cc3c(F)c(F)cc(C(N)=O)c3n2)cc1 | 2.6 | > 5 |
| 0.054 |  |  |  |  | NC(=O)c1cccc2cn(-c3ccc(C(=O)NCCN4CCOCC4)cc3)nc12 | 7.6 | > 20 |
| 0.025 |  |  |  |  | NC(=O)c1cccc2cn(-c3ccccc3)nc12 |  |  |
| 0.005 | 13 | 3 |  |  | NC(=O)c1cc(F)cc2cn(-c3ccc(NC(=O)C4CNC4)cc3)nc12 | 0.31 | 5.9 |
| 0.006 |  |  |  |  | CN1CC(C(=O)Nc2ccc(-n3cc4cc(F)cc(C(N)=O)c4n3)cc2)C1 | 0.72 | 2.6 |
| 0.18 |  |  |  |  | CNCc1ccc(-n2cc3c(Cl)ccc(C(N)=O)c3n2)cc1 | 5.2 | 4.3 |
| 0.004 |  |  |  |  | CNCc1ccc(-n2cc3cccc(C(N)=O)c3n2)cc1F | 0.2 | 3.8 |
| 0.005 |  |  |  |  | CNCc1ccc(-n2cc3cc(Cl)cc(C(N)=O)c3n2)cc1 | 0.26 | 1 |
| 0.012 |  |  |  |  | CNCc1ccc(-n2cc3cccc(C(N)=O)c3n2)cc1O | 3.4 | > 10 |
| 0.025 |  |  |  |  | CN1CCCC(C(=O)N(C)Cc2ccc(-n3cc4cccc(C(N)=O)c4n3)cc2)C1 (stereo not drawn) | 8.6 | > 20 |
| 0.002 |  |  |  |  | CNCc1ccc(-n2cc3cc(F)cc(C(N)=O)c3n2)cc1F | 0.026 | 1.5 |
| 0.005 |  |  |  |  | CNCc1ccc(-n2cc3cccc(C(N)=O)c3n2)cc1 | 0.5 | 5.6 |
| 0.01 | 13 |  | 1% and 3% | 1 | NC(=O)c1cccc2cn(-c3ccc(NC(=O)C4CNC4)cc3)nc12 | 0.92 | > 20 |
